{"source": "patent US20260130395A1", "about": "“Water Dispersible Botanical Compositions” (Aquila Black Limited, priority 2021, published 2026)", "test": "Stability of cannabinoid compounds and Vitamin E components in Beverage 1 (AB White) by LCMSMS", "type": "physicochemical", "settings": "for Stability of Plant-Derived Cannabinoid Compounds in AB White, 8° C.: AB White stored at 8° C.; for Stability of Plant-Derived Cannabinoid Compounds in AB White, 21-25° C.: AB White stored at 21-25° C.", "data": [{"smiles": "C=C(C)[C@@H]1CCC(C)=C[C@H]1c1c(O)cc(CCC)cc1O", "note": "[CBDV, cannabidivarin]", "values": [{"measurement": "Stability of Plant-Derived Cannabinoid Compounds in AB White, 8° C.", "setting": "0 days", "result": 0.150, "unit": "µg/mL"}, {"measurement": "Stability of Plant-Derived Cannabinoid Compounds in AB White, 8° C.", "setting": "1 days", "result": 0.146, "unit": "µg/mL"}, {"measurement": "Stability of Plant-Derived Cannabinoid Compounds in AB White, 8° C.", "setting": "2 days", "result": 0.147, "unit": "µg/mL"}, {"measurement": "Stability of Plant-Derived Cannabinoid Compounds in AB White, 8° C.", "setting": "3 days", "result": 0.146, "unit": "µg/mL"}, {"measurement": "Stability of Plant-Derived Cannabinoid Compounds in AB White, 8° C.", "setting": "5 days", "result": 0.147, "unit": "µg/mL"}, {"measurement": "Stability of Plant-Derived Cannabinoid Compounds in AB White, 8° C.", "setting": "8 days", "result": 0.148, "unit": "µg/mL"}, {"measurement": "Stability of Plant-Derived Cannabinoid Compounds in AB White, 8° C.", "setting": "9 days", "result": 0.146, "unit": "µg/mL"}, {"measurement": "Stability of Plant-Derived Cannabinoid Compounds in AB White, 8° C.", "setting": "10 days", "result": 0.148, "unit": "µg/mL"}, {"measurement": "Stability of Plant-Derived Cannabinoid Compounds in AB White, 8° C.", "setting": "11 days", "result": 0.150, "unit": "µg/mL"}, {"measurement": "Stability of Plant-Derived Cannabinoid Compounds in AB White, 8° C.", "setting": "12 days", "result": 0.150, "unit": "µg/mL"}, {"measurement": "Stability of Plant-Derived Cannabinoid Compounds in AB White, 8° C.", "setting": "15 days", "result": 0.150, "unit": "µg/mL"}, {"measurement": "Stability of Plant-Derived Cannabinoid Compounds in AB White, 8° C.", "setting": "16 days", "result": 0.148, "unit": "µg/mL"}, {"measurement": "Stability of Plant-Derived Cannabinoid Compounds in AB White, 8° C.", "setting": "17 days", "result": 0.146, "unit": "µg/mL"}, {"measurement": "Stability of Plant-Derived Cannabinoid Compounds in AB White, 8° C.", "setting": "18 days", "result": 0.146, "unit": "µg/mL"}, {"measurement": "Stability of Plant-Derived Cannabinoid Compounds in AB White, 8° C.", "setting": "19 days", "result": 0.149, "unit": "µg/mL"}, {"measurement": "Stability of Plant-Derived Cannabinoid Compounds in AB White, 8° C.", "setting": "22 days", "result": 0.149, "unit": "µg/mL"}, {"measurement": "Stability of Plant-Derived Cannabinoid Compounds in AB White, 8° C.", "setting": "23 days", "result": 0.149, "unit": "µg/mL"}, {"measurement": "Stability of Plant-Derived Cannabinoid Compounds in AB White, 8° C.", "setting": "24 days", "result": 0.147, "unit": "µg/mL"}, {"measurement": "Stability of Plant-Derived Cannabinoid Compounds in AB White, 8° C.", "setting": "25 days", "result": 0.149, "unit": "µg/mL"}, {"measurement": "Stability of Plant-Derived Cannabinoid Compounds in AB White, 8° C.", "setting": "26 days", "result": 0.152, "unit": "µg/mL"}, {"measurement": "Stability of Plant-Derived Cannabinoid Compounds in AB White, 8° C.", "setting": "29 days", "result": 0.151, "unit": "µg/mL"}, {"measurement": "Stability of Plant-Derived Cannabinoid Compounds in AB White, 8° C.", "setting": "30 days", "result": 0.148, "unit": "µg/mL"}, {"measurement": "Stability of Plant-Derived Cannabinoid Compounds in AB White, 8° C.", "setting": "60 days", "result": 0.143, "unit": "µg/mL"}, {"measurement": "Stability of Plant-Derived Cannabinoid Compounds in AB White, 8° C.", "setting": "90 days", "result": 0.146, "unit": "µg/mL"}, {"measurement": "Stability of Plant-Derived Cannabinoid Compounds in AB White, 8° C.", "setting": "120 days", "result": 0.144, "unit": "µg/mL"}, {"measurement": "Stability of Plant-Derived Cannabinoid Compounds in AB White, 8° C.", "setting": "150 days", "result": 0.150, "unit": "µg/mL"}, {"measurement": "Stability of Plant-Derived Cannabinoid Compounds in AB White, 8° C.", "setting": "180 days", "result": 0.150, "unit": "µg/mL"}, {"measurement": "Stability of Plant-Derived Cannabinoid Compounds in AB White, 8° C.", "setting": "210 days", "result": 0.147, "unit": "µg/mL"}, {"measurement": "Stability of Plant-Derived Cannabinoid Compounds in AB White, 8° C.", "setting": "240 days", "result": 0.145, "unit": "µg/mL"}, {"measurement": "Stability of Plant-Derived Cannabinoid Compounds in AB White, 8° C.", "setting": "270 days", "result": 0.143, "unit": "µg/mL"}, {"measurement": "Stability of Plant-Derived Cannabinoid Compounds in AB White, 8° C.", "setting": "300 days", "result": 0.143, "unit": "µg/mL"}, {"measurement": "Stability of Plant-Derived Cannabinoid Compounds in AB White, 8° C.", "setting": "330 days", "result": 0.146, "unit": "µg/mL"}, {"measurement": "Stability of Plant-Derived Cannabinoid Compounds in AB White, 8° C.", "setting": "360 days", "result": 0.145, "unit": "µg/mL"}, {"measurement": "Stability of Plant-Derived Cannabinoid Compounds in AB White, 8° C.", "setting": "390 days", "result": 0.143, "unit": "µg/mL"}, {"measurement": "Stability of Plant-Derived Cannabinoid Compounds in AB White, 8° C.", "setting": "420 days", "result": 0.144, "unit": "µg/mL"}, {"measurement": "Stability of Plant-Derived Cannabinoid Compounds in AB White, 8° C.", "setting": "450 days", "result": 0.145, "unit": "µg/mL"}, {"measurement": "Stability of Plant-Derived Cannabinoid Compounds in AB White, 8° C.", "setting": "480 days", "result": 0.143, "unit": "µg/mL"}, {"measurement": "Stability of Plant-Derived Cannabinoid Compounds in AB White, 8° C.", "setting": "510 days", "result": 0.138, "unit": "µg/mL"}, {"measurement": "Stability of Plant-Derived Cannabinoid Compounds in AB White, 8° C.", "setting": "540 days", "result": 0.139, "unit": "µg/mL"}, {"measurement": "Stability of Plant-Derived Cannabinoid Compounds in AB White, 8° C.", "setting": "570 days", "result": 0.138, "unit": "µg/mL"}, {"measurement": "Stability of Plant-Derived Cannabinoid Compounds in AB White, 21-25° C.", "setting": "0 days", "result": 0.150, "unit": "µg/mL"}, {"measurement": "Stability of Plant-Derived Cannabinoid Compounds in AB White, 21-25° C.", "setting": "1 days", "result": 0.149, "unit": "µg/mL"}, {"measurement": "Stability of Plant-Derived Cannabinoid Compounds in AB White, 21-25° C.", "setting": "2 days", "result": 0.148, "unit": "µg/mL"}, {"measurement": "Stability of Plant-Derived Cannabinoid Compounds in AB White, 21-25° C.", "setting": "3 days", "result": 0.149, "unit": "µg/mL"}, {"measurement": "Stability of Plant-Derived Cannabinoid Compounds in AB White, 21-25° C.", "setting": "5 days", "result": 0.144, "unit": "µg/mL"}, {"measurement": "Stability of Plant-Derived Cannabinoid Compounds in AB White, 21-25° C.", "setting": "8 days", "result": 0.145, "unit": "µg/mL"}, {"measurement": "Stability of Plant-Derived Cannabinoid Compounds in AB White, 21-25° C.", "setting": "9 days", "result": 0.148, "unit": "µg/mL"}, {"measurement": "Stability of Plant-Derived Cannabinoid Compounds in AB White, 21-25° C.", "setting": "10 days", "result": 0.147, "unit": "µg/mL"}, {"measurement": "Stability of Plant-Derived Cannabinoid Compounds in AB White, 21-25° C.", "setting": "11 days", "result": 0.150, "unit": "µg/mL"}, {"measurement": "Stability of Plant-Derived Cannabinoid Compounds in AB White, 21-25° C.", "setting": "12 days", "result": 0.152, "unit": "µg/mL"}, {"measurement": "Stability of Plant-Derived Cannabinoid Compounds in AB White, 21-25° C.", "setting": "15 days", "result": 0.151, "unit": "µg/mL"}, {"measurement": "Stability of Plant-Derived Cannabinoid Compounds in AB White, 21-25° C.", "setting": "16 days", "result": 0.145, "unit": "µg/mL"}, {"measurement": "Stability of Plant-Derived Cannabinoid Compounds in AB White, 21-25° C.", "setting": "17 days", "result": 0.150, "unit": "µg/mL"}, {"measurement": "Stability of Plant-Derived Cannabinoid Compounds in AB White, 21-25° C.", "setting": "18 days", "result": 0.151, "unit": "µg/mL"}, {"measurement": "Stability of Plant-Derived Cannabinoid Compounds in AB White, 21-25° C.", "setting": "19 days", "result": 0.148, "unit": "µg/mL"}, {"measurement": "Stability of Plant-Derived Cannabinoid Compounds in AB White, 21-25° C.", "setting": "22 days", "result": 0.148, "unit": "µg/mL"}, {"measurement": "Stability of Plant-Derived Cannabinoid Compounds in AB White, 21-25° C.", "setting": "23 days", "result": 0.148, "unit": "µg/mL"}, {"measurement": "Stability of Plant-Derived Cannabinoid Compounds in AB White, 21-25° C.", "setting": "24 days", "result": 0.145, "unit": "µg/mL"}, {"measurement": "Stability of Plant-Derived Cannabinoid Compounds in AB White, 21-25° C.", "setting": "25 days", "result": 0.145, "unit": "µg/mL"}, {"measurement": "Stability of Plant-Derived Cannabinoid Compounds in AB White, 21-25° C.", "setting": "26 days", "result": 0.149, "unit": "µg/mL"}, {"measurement": "Stability of Plant-Derived Cannabinoid Compounds in AB White, 21-25° C.", "setting": "29 days", "result": 0.147, "unit": "µg/mL"}, {"measurement": "Stability of Plant-Derived Cannabinoid Compounds in AB White, 21-25° C.", "setting": "30 days", "result": 0.151, "unit": "µg/mL"}, {"measurement": "Stability of Plant-Derived Cannabinoid Compounds in AB White, 21-25° C.", "setting": "60 days", "result": 0.149, "unit": "µg/mL"}, {"measurement": "Stability of Plant-Derived Cannabinoid Compounds in AB White, 21-25° C.", "setting": "90 days", "result": 0.143, "unit": "µg/mL"}, {"measurement": "Stability of Plant-Derived Cannabinoid Compounds in AB White, 21-25° C.", "setting": "120 days", "result": 0.141, "unit": "µg/mL"}, {"measurement": "Stability of Plant-Derived Cannabinoid Compounds in AB White, 21-25° C.", "setting": "150 days", "result": 0.146, "unit": "µg/mL"}, {"measurement": "Stability of Plant-Derived Cannabinoid Compounds in AB White, 21-25° C.", "setting": "180 days", "result": 0.141, "unit": "µg/mL"}, {"measurement": "Stability of Plant-Derived Cannabinoid Compounds in AB White, 21-25° C.", "setting": "210 days", "result": 0.142, "unit": "µg/mL"}, {"measurement": "Stability of Plant-Derived Cannabinoid Compounds in AB White, 21-25° C.", "setting": "240 days", "result": 0.145, "unit": "µg/mL"}, {"measurement": "Stability of Plant-Derived Cannabinoid Compounds in AB White, 21-25° C.", "setting": "270 days", "result": 0.148, "unit": "µg/mL"}, {"measurement": "Stability of Plant-Derived Cannabinoid Compounds in AB White, 21-25° C.", "setting": "300 days", "result": 0.142, "unit": "µg/mL"}, {"measurement": "Stability of Plant-Derived Cannabinoid Compounds in AB White, 21-25° C.", "setting": "330 days", "result": 0.144, "unit": "µg/mL"}, {"measurement": "Stability of Plant-Derived Cannabinoid Compounds in AB White, 21-25° C.", "setting": "360 days", "result": 0.146, "unit": "µg/mL"}, {"measurement": "Stability of Plant-Derived Cannabinoid Compounds in AB White, 21-25° C.", "setting": "390 days", "result": 0.146, "unit": "µg/mL"}, {"measurement": "Stability of Plant-Derived Cannabinoid Compounds in AB White, 21-25° C.", "setting": "420 days", "result": 0.143, "unit": "µg/mL"}, {"measurement": "Stability of Plant-Derived Cannabinoid Compounds in AB White, 21-25° C.", "setting": "450 days", "result": 0.144, "unit": "µg/mL"}, {"measurement": "Stability of Plant-Derived Cannabinoid Compounds in AB White, 21-25° C.", "setting": "480 days", "result": 0.143, "unit": "µg/mL"}, {"measurement": "Stability of Plant-Derived Cannabinoid Compounds in AB White, 21-25° C.", "setting": "510 days", "result": 0.139, "unit": "µg/mL"}, {"measurement": "Stability of Plant-Derived Cannabinoid Compounds in AB White, 21-25° C.", "setting": "540 days", "result": 0.140, "unit": "µg/mL"}, {"measurement": "Stability of Plant-Derived Cannabinoid Compounds in AB White, 21-25° C.", "setting": "570 days", "result": 0.138, "unit": "µg/mL"}]}]}
